Measured values reported in patent EP4793271A1, “NEUROPROTECTIVE AGENT” (National Center of Neurology and Psychiatry, priority 2023, dated 2025).
Where two headings read alike, the source gives them in different places.

Columns and labels:
[1] = molecular target: T1, hSARM1 (Homo sapiens, UniProt Q6SZW1); assay: Human SARM1 activity measurement in HEK293 cells transiently transfected with ΔN-hSARM1 (PC6 fluorescent probe); type: cell-based; set-up: expressed in transfected cells; host or cells: HEK293, pcDNA3 expression vector
T1 sequence (Q6SZW1 28-724): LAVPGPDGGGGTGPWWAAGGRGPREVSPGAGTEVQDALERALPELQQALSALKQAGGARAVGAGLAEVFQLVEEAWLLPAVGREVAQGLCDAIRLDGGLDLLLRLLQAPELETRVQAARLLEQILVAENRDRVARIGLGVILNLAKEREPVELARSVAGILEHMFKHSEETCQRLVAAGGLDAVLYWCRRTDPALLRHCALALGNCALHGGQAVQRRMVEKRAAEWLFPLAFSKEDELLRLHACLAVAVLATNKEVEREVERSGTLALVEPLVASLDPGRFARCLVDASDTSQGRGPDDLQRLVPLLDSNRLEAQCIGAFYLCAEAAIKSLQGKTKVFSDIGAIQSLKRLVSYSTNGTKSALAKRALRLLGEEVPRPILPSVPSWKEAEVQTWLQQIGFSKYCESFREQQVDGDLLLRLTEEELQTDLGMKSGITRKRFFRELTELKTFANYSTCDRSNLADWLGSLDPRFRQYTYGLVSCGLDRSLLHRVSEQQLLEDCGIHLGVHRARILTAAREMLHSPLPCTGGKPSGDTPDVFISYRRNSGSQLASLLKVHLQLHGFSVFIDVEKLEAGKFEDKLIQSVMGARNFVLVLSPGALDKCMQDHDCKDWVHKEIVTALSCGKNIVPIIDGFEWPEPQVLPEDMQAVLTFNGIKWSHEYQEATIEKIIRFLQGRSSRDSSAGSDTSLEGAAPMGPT
Method in brief: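 HEK293 cells in nicotinamide-free DMEM with 5 μM nicotinamide, transiently transfected with mitochondrial-targeting-deleted ΔN-hSARM1; PC6 base-exchange fluorescent probe (50 μM) plus compound (30 μM) added ~8 h post-transfection. Fluorescence (ex 405/em 525 nm) read ~48 h from transfection; inhibition % versus transfected DMSO control, untransfected background subtracted.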

[2] = tested on: primary cultured cells of mouse fetus-derived dorsal root ganglia (DRGs); assay: Suppression of axonal degeneration after axotomy in DRG explant culture; type: cell-based; settings: minimum concentration at which axonal degeneration was suppressed (DI 0.3 or less), 24 hours after axotomy; for minimal effective concentration: Mus musculus, read-out: Evaluation on protection against degeneration
Method in brief: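 Embryonic ICR mouse DRG explants were cultured 7–8 days in nicotinamide-free neuronal medium with NGF, then axotomized by removing the cell bodies. Compound (100 pM–10 µM final, 0.1% DMSO) was added within 30 min, and neurites were imaged 24 h later. The result is the lowest concentration giving degeneration index ≤0.3.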

[3] = molecular target: T2, nicotinamide phosphoribosyl transferase (NAMPT) (Homo sapiens, UniProt P43490); assay: NAMPT activity measurement (NMN fluorescence detection); type: biochemical; settings: NAMPT recombinant protein, 10 µM Nam; for IC50: read-out: Evaluation on NAMPT inhibitory
T2 construct: purchased Medical & Biological Laboratories Co., Ltd. (MBL)
Method in brief: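 Recombinant NAMPT reacted with 10 µM Nam, 0.5 µM PRPP, 2 µM ATP in Tris pH 7.4 buffer with MgCl2, DTT, BSA; product NMN quantified by fluorescence (ex 421/em 480 nm) after derivatization with 2-acetylbenzofuran. Compounds at 3 nM–10 µM; control-normalized signal used for IC50.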

[4] = inhibition rate, compound 30 µM, PC6 50 µM, HEK293 cells expressing ΔN-hSARM1, approximately 48 hours from transfection, read-out: Evaluation on hSARM1 inhibitory

T2 sequence (P43490 whole entry, species assumed): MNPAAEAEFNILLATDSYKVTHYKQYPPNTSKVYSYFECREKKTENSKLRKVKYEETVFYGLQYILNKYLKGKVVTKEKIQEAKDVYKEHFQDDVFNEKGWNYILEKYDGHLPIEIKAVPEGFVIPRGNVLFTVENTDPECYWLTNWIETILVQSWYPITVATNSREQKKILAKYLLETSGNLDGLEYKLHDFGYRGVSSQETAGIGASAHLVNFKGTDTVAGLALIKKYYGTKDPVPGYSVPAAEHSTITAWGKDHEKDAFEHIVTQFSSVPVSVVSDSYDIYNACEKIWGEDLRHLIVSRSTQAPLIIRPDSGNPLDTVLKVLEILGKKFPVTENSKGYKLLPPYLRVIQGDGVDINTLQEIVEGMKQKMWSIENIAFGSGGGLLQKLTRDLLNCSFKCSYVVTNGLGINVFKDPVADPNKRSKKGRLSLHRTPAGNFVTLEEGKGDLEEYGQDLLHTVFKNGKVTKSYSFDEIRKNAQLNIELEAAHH

Row | inhibition at 30 µM [1, 4] [%] | Evaluation on NAMPT inhibitory [3] | IC50 [3] [µM] | SMILES | minimal effective concentration [2] [µM] | inhibition at 30 µM ([1]; HEK293, read-out: Evaluation on hSARM1 inhibitory) [%] | Evaluation on protection against degeneration [2]
1 | > 75 | ○ |  | O=C(/C=C/c1cccnc1)NCCCNC(=O)/C=C/c1cccnc1 [compound 39] | ≤ 0.01 |  | 
2 | > 10 | ○ |  | O=C(NCCCC1NC(=O)C(CCCNC(=O)c2cccnc2)NC1=O)c1cccnc1 (stereo not drawn) [compound 103] | 0.01 to 0.1 |  | 
3 | > 50 | ○ |  | CC(C)C(=O)Nc1ccc(CNC(=O)c2cccnc2)cn1 [compound 72] | 0.01 to 0.1 |  | 
4 | > 75 | ○ |  | O=C(NCc1ccc(NC(=O)c2ccc(-c3ccccc3)cc2)nc1)c1cccnc1 [Compound 128] | ≤ 0.01 |  | 
5 | > 75 |  | ≥ 0.1 | COc1cccc(OCCCNC(=O)/C=C/c2cccnc2)c1 [compound 18] | ≤ 0.01 |  | 
6 | > 75 | ○ |  | Cc1ccc(C(=O)Nc2ccc(CNC(=O)c3cccnc3)cn2)cc1 [Compound 119] | ≤ 0.01 |  | 
7 | > 75 |  | ≥ 0.1 | O=C(Cc1ccc(F)cc1)Nc1ccc(CNC(=O)c2cccnc2)cn1 [Compound 144] | ≤ 0.01 |  | 
8 | > 75 | ○ |  | Cc1cc(C)cc(C(=O)Nc2ccc(CNC(=O)c3cccnc3)cn2)c1 [Compound 136] | ≤ 0.01 |  | 
9 | > 75 | ○ |  | CC(=O)NCc1ccc(OCCCNC(=O)c2cccnc2)cc1 [compound 20] | 0.01 to 0.1 |  | 
10 | > 75 |  | ≥ 0.1 | O=C(NCCOCCOc1cccc(O)c1)c1cccnc1 [compound 27] | 0.01 to 0.1 |  | 
11 | > 75 | ○ |  | O=C(NCCCCCCCCOCCO)c1cccnc1 [compound 4] |  |  | A (A ≤ 0.01 µM)
12 | > 50 | ○ |  | O=C(NCc1ccc(NC(=O)c2ccc(C(F)(F)F)cc2)nc1)c1cccnc1 [compound 83] | ≤ 0.01 |  | 
13 | > 50 | ○ |  | CCCCC(=O)N(C(=O)CCCC)c1ccc(CNC(=O)c2cccnc2)cn1 [Compound 171] | ≤ 0.01 |  | 
14 | > 25 | ○ |  | O=C(NCc1cccc(CNC(=O)c2cccnc2)n1)c1ccccc1 [Compound 149] | 0.1 to 1 |  | 
15 | > 50 | ○ |  | O=C(NCc1ccc(CNC(=O)c2cccnc2)nc1)c1cccnc1 [Compound 146] | 0.01 to 0.1 |  | 
16 | > 75 | ○ |  | O=C(CNC(=O)c1cccnc1)NCCCCCCNC(=O)CNC(=O)c1cccnc1 [compound 41] | ≤ 0.01 |  | 
17 | > 75 |  | ≥ 0.1 | COc1cccc(OCCOCCNC(=O)/C=C/c2cccnc2)c1 [compound 28] | ≤ 0.01 |  | 
18 | > 75 |  | ≥ 0.1 | COc1ccc(/C=C/C(=O)Nc2ccc(CNC(=O)c3cccnc3)cn2)cc1 [Compound 180] | ≤ 0.01 |  | 
19 | > 75 | ○ |  | O=C(NCCOCCOc1ccc(CNC(=O)c2ccccc2)cc1)c1cccnc1 [compound 13] | 0.01 to 0.1 |  | 
20 | > 75 |  | ≥ 0.1 | O=C(NCc1ccc(NC(=O)c2cc(F)cc(C(F)(F)F)c2)nc1)c1cccnc1 [compound 84] | 0.01 to 0.1 |  | 
21 | > 75 |  | ≥ 0.1 | CC(C)CCC(=O)Nc1ccc(CNC(=O)c2cccnc2)cn1 [Compound 164] | ≤ 0.01 |  | 

Row | SMILES | inhibition at 30 µM [1, 4] [%] | Evaluation on NAMPT inhibitory [3] | IC50 [3] [µM] | minimal effective concentration [2] [µM] | inhibition at 30 µM ([1]; HEK293, read-out: Evaluation on hSARM1 inhibitory) [%] | Evaluation on protection against degeneration [2]
22 | O=C(NCc1ccc(NC(=O)c2ccccc2)c(F)c1)c1cccnc1 [compound 110] |  | ○ |  |  | > 25 | A (A ≤ 0.01 µM)
